# In the SangsterLogP compilation:
# Legend:
# [1] = method code SF-AS, from DOI: 10.1002/1521-3838(200111)20:4<291::aid-qsar291>3.0.co;2-q
# [2] = method code SF-AS, from DOI: 10.1021/es00012a023, PMID: 22148214
# [3] = method code SF-AS, from DOI: 10.1111/j.2042-7158.1979.tb13606.x, PMID: 41067; details: pH 1.2
# [4] = from Dutta, H.; Mehta, N.; SenGupta, M.; Pal, D.; Sengupta, C.; De, A. (1988). Dioxanide furoate: studies on its interaction with blood phospholipid in relation to partition coefficients of related drugs. …
# [5] = method code SF-GLC, from Hermens, J., & De Bruijn, J. (1987). A QSAR study for fish toxicity data of organophosphorus compounds. QSAR in Drug Design and Toxicology, 10, 343-345.
# [6] = method code SF-RC, from Audran, M.; Chanal, J.; Berge, G.; Marignan, R. (1983). Binding-structure correlation of bovine serum albumin in a series of cresotinamides. International Journal of Pharmaceutics, 15(3)273-284.; details: pH 1.0
# [7] = method code SF, from DOI: 10.1515/bc.2002.085, PMID: 12108546
# [8] = method code SF, from DOI: 10.1016/0048-3575(88)90017-x
# [9] = not given; remark: listed apart in the source
# [10] = not given; remark: listed apart in the source
# [11] = method code SF-AS, from DOI: 10.1021/jm00163a043, PMID: 2153206; details: pH 7.0
# [12] = not given; remark: listed apart in the source
# [13] = not given; remark: listed apart in the source
# [14] = method code SF, from DOI: 10.1021/jm00307a001, PMID: 5637185
# [15] = method code SF-HPLC, from DOI: 10.1016/0378-5173(87)90234-1; details: pH 4.0
# [16] = method code SF, from DOI: 10.1111/j.2042-7158.1971.tb08772.x, PMID: 4401532; details: pH 7.2
# [17] = method code SF-AS, from DOI: 10.1007/bf02877675, PMID: 411721
# [18] = not given; remark: listed apart in the source
# [19] = method code SF-HPLC, from DOI: 10.1016/s0223-5234(02)01360-0, PMID: 12008054; details: pH 7.4
# [20] = method code SF, from DOI: 10.1021/jm030913e.s001, PMID: 14736235; details: pH 7.4
# [21] = method code SF-AS, from DOI: 10.1002/jps.2600800717, PMID: 1658297
# [22] = method code SF-AS, from DOI: 10.1021/jm00223a031, PMID: 810572
# [23] = method code SF-AS, from DOI: 10.1016/0006-2952(93)90433-w, PMID: 8494536; details: pH 7.4
# [24] = method code SF, from DOI: 10.1016/j.bmcl.2006.04.097, PMID: 16714112
# [25] = method code SF, from DOI: 10.1021/jm00378a018, PMID: 6389865; details: pH 7.0
# [26] = method code SF, from DOI: 10.1016/0360-3016(86)90226-9, PMID: 3744928; details: pH 7.4
# [27] = method code SF-AS, from Holmes, L.; Lough, E. (1976). Effect of Intramolecular Hydrogen Bonding on Partition Coefficients [Technical Note]. Defence Research Establishment Suffield.
# [28] = method code SF-HPLC, from DOI: 10.1016/0378-5173(82)90005-9; details: pH 3.0
smiles,measurement,setting,value
CCNc1nc(NCC)nc(OC)n1,logP,,2.41
COc1ccc(-c2n[nH]c(=S)o2)cc1,logP,[1],3
CC(C)OC(=O)CS(=O)c1ccccc1[N+](=O)[O-] (centres undefined),logP,[2],1.59
CCCCOc1ccc(C(=O)O)cc1,logD,[3],3.57
CN(C(=O)C(Cl)Cl)c1ccc(OC(=O)c2ccco2)cc1,logP,[4],2.24
Nc1ccc(-c2n[nH]c(=S)o2)cc1,logP,[1],2.03
CN(C(=O)C(Cl)Cl)c1ccc(OC(=O)c2ccccc2)cc1,logP,[4],2.56
COP(=S)(OC)Oc1cc(Cl)c(I)cc1Cl,logP,[5],4.61
Cc1cc(Br)cc(C(N)=O)c1O,logD,[6],2.76
CCCCOC(=O)C1(C)CCC=[N+]1[O-] (centres undefined),logP,[7],0.12
CC(=O)OCN1C(=O)C=C(C)C1=O,logP,[8],0.45
O=C(O)Cc1ccc(Oc2cccc(Br)c2)cc1,logP,[9],4.1
COP(=S)(OC)Oc1ccc(SC)cc1,logP,[5],3.64
CC(=O)OCN1C(=O)c2cccc3cccc(c23)C1=O,logP,[8],2.34
O=[N+]([O-])c1ccc(Oc2ccccc2)cc1,logP,[10],3.79
Cc1cn([C@H]2C[C@H](N=[N+]=[N-])[C@@H](CO)O2)c(=O)[nH]c1=S,logD,[11],1.07
Cc1ccc(C)c(O)c1,logP,[12],2.48
CNc1ccccc1C,logP,[13],2.16
C#CC(/C=C/Cl)(CC)OC(N)=O (centres undefined),logP,[14],1.71
CC(C)OC(=O)n1cc(F)c(=O)[nH]c1=O,logD,[15],0.2
CC(=O)N(C)c1ccc(O)cc1,logD,[16],0.61
Cc1ccc(NN=C(C#N)C#N)cc1,logP,[17],3.02
COC(=O)C1CC(=O)N(C)C1 (centres undefined),logP,[18],-0.74
CCOC(=O)C1(C)CCC=[N+]1[O-] (centres undefined),logP,[7],-0.82
NC(N)=N/N=C/c1c(Cl)cccc1Cl,logD,[19],1.4
Cc1cc(Br)cc(C(=O)NC(C)C)c1O,logD,[6],4.19
CCNc1nc(NC(C)CC)nc(OC)n1 (centres undefined),logP,,2.96
CCC[C@@H]1CC(=O)N([C@@H](CC)C(N)=O)C1,logD,[20],1
CNC(=NC#N)NCCSCc1nc[nH]c1C,logD,[19],0.35
CC(=O)c1ccc([N+](=O)[O-])cc1,logP,[10],1.61
CC1(C)CC(N(N=O)C(=O)NC2C(O)OC(CO)C(O)C2O)C(C)(C)N1O (centres undefined),logP,[21],1.81
COP(=S)(OC)Oc1ccccc1,logP,[5],2.97
O=C(c1ccccn1)n1c(=O)[nH]cc(F)c1=O,logD,[15],-0.06
CC[C@@H](C(N)=O)N1C[C@H](CI)CC1=O,logD,[20],0.51
Oc1cccc2c(Cl)ccnc12,logP,[22],2.67
N#CC(C#N)=NNc1ccccc1,logP,[17],2.49
CC[C@@H](C(N)=O)N1CCCC1=O,logD,[20],-0.65
CCC1(CC)SCC(=O)NC1=O,logP,[14],1.5
O=C(O)Cc1cc(Cl)c(Cl)cc1Cl,logP,[9],3.6
O=C(Nc1ccc(O)cc1)C(Cl)Cl,logP,[4],1.6
COC(=O)CSc1ccccc1[N+](=O)[O-],logP,[2],1.88
C#CC(C=C)(CC)OC(N)=O (centres undefined),logP,[14],1.09
CCCCCCCCOC(=O)C1(C)CCC=[N+]1[O-] (centres undefined),logP,[7],1.62
COc1ccc(O)c2ncccc12,logP,[22],2.06
CC(C)OC(=O)CS(=O)c1ccc([N+](=O)[O-])cc1[N+](=O)[O-] (centres undefined),logP,[2],1.61
NS(=O)(=O)c1cccc2ccccc12,logD,[23],1.55
CC(=O)Nc1ccc(Cl)cc1,logD,[16],1.87
Fc1cccc(F)c1C1=NCCO1,logP,[24],1.45
CC1(C)CC(N(N=O)C(=O)NC2C(O)OC(CO)C(O)C2O)CC(C)(C)N1O (centres undefined),logP,[21],1.87
COc1ccc(CCC(=O)O)cc1,logD,[3],1.9
NC(=O)c1cccc2ccccc12,logD,[23],1.88
O=[N+]([O-])c1ccccc1C1=NCCO1,logP,[24],1.27
CC(=O)Nc1nc(N2CCN(C)CC2)c(Cl)nc1[N+](=O)[O-],logD,[25],0.5
c1ccc(N(c2ccccc2)c2ccccc2)cc1,logP,[10],5.22
Fc1cccc(Cl)c1C1=NCCO1,logP,[24],1.89
CCCCNC(=O)Cn1cnc([N+](=O)[O-])n1,logD,[26],0.89
CC(=O)c1ccc(O)cc1,logP,[27],1.45
Nc1nc(NCC(O)CO)c(Cl)nc1[N+](=O)[O-] (centres undefined),logD,[25],-0.22
CN(N=O)C(=O)NC[C@H](O)[C@@H](O)[C@H](O)[C@H](O)CO,logP,[21],-0.96
CC(=O)OCN1C(=O)C2CC=CCC2C1=O (centres undefined),logP,[8],0.97
CNc1nc(NC(C)C)nc(SC)n1,logP,,2.79
CC(C)(C)c1cc(C(C)(C)C)c(O)c(C(C)(C)C)c1,logP,[12],6.3
Cc1ccnc2c(O)cccc12,logP,[22],2.36
CCCCCCOC(=O)n1cc(F)c(=O)[nH]c1=O,logD,[15],2.04
CS(=O)(=O)c1ccccc1,logD,[23],0.55
O=[N+]([O-])c1ncn(CC(O)CN2CC2)n1 (centres undefined),logD,[26],-0.72
O=C(c1ccccc1)c1ccccc1O,logP,[27],3.52
Cc1ccc2ccccc2n1,logP,[13],2.59
O=C1NC(=O)C2(CCCCCC2)C(=O)N1,logD,[28],1.36
O=C1NC(=O)C2(CCC2)C(=O)N1,logD,[28],-0.27
COc1ccc(C(=O)O)cc1,logD,[3],1.88
CC(C)(C)c1ccc(O)c(C(C)(C)C)c1,logP,[12],4.74
CC(=O)Nc1nc(NCC(O)CO)c(Cl)nc1[N+](=O)[O-] (centres undefined),logD,[25],0
Cc1ccccc1N(C)C,logP,[13],2.81
CCNC(=O)c1cc(Br)cc(C)c1O,logD,[6],3.61
S=c1[nH]nc(-c2ccc(Br)cc2)o1,logP,[1],3.93
CCCCCCCCCCCCN1CC(C(=O)O)CC1=O (centres undefined),logP,[18],2.6
N#CC(C#N)=NNc1cccc(Cl)c1,logP,[17],3.13
CCCCCCN1CC(C(=O)OC)CC1=O (centres undefined),logP,[18],2.3
COc1ccc(N(C)C(C)=O)cc1,logD,[16],0.72
O=C(O)Cc1ccc(F)cc1,logP,[9],1.6
COc1cccc(C=O)c1O,logP,[27],1.33
CC(C)C[C@H]1C(=O)N2CCC[C@H]2[C@]2(O)O[C@](NC(=O)[C@@H]3C=C4c5cccc6[nH]c(Br)c(c56)C[C@H]4N(C)C3)(C(C)C)C(=O)N12,logD,[19],4.61
O=C(Cn1cnc([N+](=O)[O-])n1)N1CCOCC1,logD,[26],-0.96
